According to US10053485B2, “Cytotoxic agents that preferentially target leukemia inhibitory factor (LIF) for the treatment of malignancies and as new contraceptive agents” (Evestra, Inc., priority 2015, dated 2018):

Experiments:
K-562 = test: NCI-60 screen, Leukemia panel; format: cell-based; conditions: Homo sapiens, K562, 48 h
NCI-H332M = test: NCI-60 screen, Non-Small Cell Lung Cancer panel; format: cell-based; conditions: Homo sapiens, 48 h
NCI-H460 = test: NCI-60 screen, Non-Small Cell Lung Cancer panel; format: cell-based; conditions: Homo sapiens, NCI-H460, 48 h
COLO 205 = test: NCI-60 screen, Colon Cancer panel; format: cell-based; conditions: Homo sapiens, COLO 205, 48 h
SNB-19 = test: NCI-60 screen, CNS Cancer panel; format: cell-based; conditions: Homo sapiens, SNB-19, 48 h
MALME-3M = test: NCI-60 screen, Melanoma panel; format: cell-based; conditions: Homo sapiens, 48 h
MDA-MB-435 = test: NCI-60 screen, Melanoma panel; format: cell-based; conditions: Homo sapiens, MDA-MB-435, 48 h
OVCAR-3 = test: NCI-60 screen, Ovarian Cancer panel; format: cell-based; conditions: Homo sapiens, OVCAR-3, 48 h
Procedure: EC 330 was also tested using the NCI-60 Screening Methodology. The human tumor cell lines of the cancer screening panel are grown in RPMI 1640 medium containing 5% fetal bovine serum and 2 mM L-glutamine. For a typical screening experiment, cells are inoculated into 96 well microtiter plates in 100 μL at plating densities ranging from 5,000 to 40,000 cells/well depending on the doubling time of individual cell lines. After cell inoculation, the microtiter plates are incubated at 37° C., 5% CO2, 95% air and 100% relative humidity for 24 h prior to addition of experimental drugs. […]
Following drug addition, the plates are incubated for an additional 48 h at 37° C., 5% CO2, 95% air, and 100% relative humidity. […] Bound stain is subsequently solubilized with 10 mM trizma base, and the absorbance is read on an automated plate reader at a wavelength of 515 nm. […] Using the seven absorbance measurements [time zero, (Tz), control growth, (C), and test growth in the presence of drug at the five concentration levels (Ti)], the percentage growth is calculated at each of the drug concentrations levels. Percentage growth inhibition is calculated as: [(Ti−Tz)/(C−Tz)]×100 for concentrations for which Ti>/=Tz [(Ti−Tz)/Tz]×100 for concentrations for which Ti<Tz.
Three dose response parameters are calculated for each experimental agent. […]

OVCAR-5 = test: NCI-60 screen, Ovarian Cancer panel; format: cell-based; conditions: Homo sapiens, OVCAR-5, 48 h
NCI/ADR-RES = test: NCI-60 screen, Ovarian Cancer panel; format: cell-based; conditions: Homo sapiens, 48 h
RXF 393 = test: NCI-60 screen, Renal Cancer panel; format: cell-based; conditions: Homo sapiens, RXF 393, 48 h
MCF7 = test: NCI-60 screen, Breast Cancer panel; format: cell-based; conditions: Homo sapiens, MCF7, 48 h
T47D breast cancer cells = test: Soft agar colony formation assay; format: cell-based, human
Procedure: Colonies of cancer cells formed in soft agar in the presence and absence of the testing compounds is a standard assay to interpret in-vitro tumorigenic potential in the basal layer. Agar was prepared by mixing 1% DNA grade agar melted and cooled to 40° C. with an equal volume of (2×) Dulbecco's Modified Eagle's Medium (DMEM) to obtain 0.5% agar that was dispersed in a 6-well plate and allowed to solidify. A total of 0.6% agar was prepared in RPMI medium and mixed together with T47D cells (0.5×10^6 cells/mL) and immediately plated on the basal layer in the presence or absence of testing compounds. The cultures were incubated at 37° C. in a CO2 incubator for 2 weeks, and colonies were stained with 0.005% crystal violet and observed under a light microscope.

[1] = read-out: GI50 (log10GI50) (converted)
[2] = read-out: LC50 (log10LC50) (converted)

C#CC(F)(F)[C@]1(O)CCC2C3CCC4=CC(=O)CCC4=C3C(c3ccc(C4CC4)cc3)C[C@@]21C (stereo partly drawn) [EC330, 17α-(1,1-difluoro-2-propyn-1-yl)-17β-hydroxy-11β-[4-p-(cyclopropyl)phenyl]estra-4,9-dien-3-one]
GI50 (K-562; [1]): 2.19 µM
CC50 (K-562; [2]): > 100 µM
GI50 (NCI-H332M; [1]): 3.8 µM
CC50 (NCI-H332M; [2]): > 100 µM
GI50 (NCI-H460; [1]): 2.69 µM
CC50 (NCI-H460; [2]): > 100 µM
GI50 (COLO 205; [1]): 0.794 µM
CC50 (COLO 205; [2]): 8.91 µM
GI50 (SNB-19; [1]): 3.8 µM
CC50 (SNB-19; [2]): > 100 µM
GI50 (MALME-3M; [1]): < 0.01 µM
CC50 (MALME-3M; [2]): 0.0813 µM
GI50 (MDA-MB-435; [1]): 1.86 µM
CC50 (MDA-MB-435; [2]): > 100 µM
CC50 (OVCAR-3; [2]): 0.933 µM
GI50 (OVCAR-3; SRB, read-out: GI50 (log10GI50) (converted)): 0.0129 µM
GI50 (OVCAR-5; [1]): 1.07 µM
CC50 (OVCAR-5; [2]): > 100 µM
GI50 (NCI/ADR-RES; [1]): 0.0257 µM
CC50 (NCI/ADR-RES; [2]): > 100 µM
GI50 (RXF 393; [1]): 1.07 µM
CC50 (RXF 393; [2]): > 100 µM
GI50 (MCF7; [1]): 1.23 µM
CC50 (MCF7; [2]): > 100 µM
inhibition in the number of colonies formed (T47D breast cancer cells; 100 nM concentration, in words): complete inhibition
inhibition at 0.005 µM (T47D breast cancer cells; Homo sapiens, T47D, 5 nM concentration, read-out: inhibition in the number of colonies formed): 50%
